From patent US20260027065A1, “LIVER/ADIPOSE TISSUE DUAL-TARGETING COMPOSITE NANO-DRUG CARRIER” (IUCF-HYU (INDUSTRY-UNIVERSITY COOPERATION FOUNDATION …, priority 2022, published 2026)

Tested on: animal models of obesity-induced type 2 diabetes
Assay: Treatment effect (body weight, insulin resistance, biomarkers), type 2 diabetes model
Format: in vivo, C57BL/6J mice
Details: ZnPP 0.25 mg/kg i.p. once a week for 4 weeks together with HO-1 inducer-encapsulated ATS/PLGA NPs 1 mg/kg i.v.; FIG. 9
Description: C57BL/6J mice were purchased from Orient Bio Inc. and acclimated for one week. From week 3, a 60% kcal high fat diet (HFD, Central Lab Animal, Inc.) was mixed with normal diet and fed. From week 6, only HFD was fed, and HFD was additionally fed for 8 weeks. In week 20, it was confirmed that the body weight reached 45 to 55 g, and the fasting blood glucose level also exceeded 250 mg/dl.
After constructing the animal models of obesity-induced type 2 diabetes and the animal models of obesity-induced non-alcoholic steatohepatitis, ATS/PLGA NPs in which 1 mg/kg of heme oxygenase-1 inducer was encapsulated were injected intravenously once a week for 4 weeks. Here, the results of a control administered intravenously with ATS/PLGA NPs (vehicle) in which 1 mg/kg of heme oxygenase-1 inducer was not encapsulated once a week for 4 weeks and a control administered intraperitoneally with 0.25 mg/kg of heme oxygenase-1 inhibitor (ZnPP) once a week for 4 weeks while intravenous administration with ATS/PLGA NPs in which 1 mg/kg of heme oxygenase-1 inducer was encapsulated once a week for 4 weeks were compared. The body weight was measured for 7 weeks, and then the mice were dissected to obtain mRNA and proteins from major organs such as the liver and adipose tissue for biomarker analysis.

C=CC1=C(C)c2cc3[n-]c(cc4[n-]c(cc5nc(cc1n2)C(C)=C5C=C)c(C)c4CCC(=O)O)c(CCC(=O)O)c3C.[Zn+2] [ZnPP]
Effect on body weight with co-administered HO-1 inhibitor: no effect
